Laboratory results published in US20250242064A1, “CXCR4-TARGETING COMPOUNDS, AND METHODS OF MAKING AND USING THE SAME” (PROVINCIAL HEALTH SERVICES AUTHORITY, priority 2022, published 2025).
Where a SMILES comes first, the peptide text is derived from it. Bridges are numbered along the chain shown (N, C = ends). Side-chain parts run from the residue outwards. [ ]: non-standard residue; d: D form. The star is where a group is joined. X4 = O=C(O)CN1CCN(CC(=O)O)CCN(CC(=O)N[C@@H](CS(=O)(=O)O)C(=O)NCCCC[C@H](NC(=O)CNC(=O)CCCc2ccc(Cl)cc2)C(=O)*)CCN(CC(=O)O)CC1; X6 = COc1ccc(CCCC(=O)NCCCC[C@H](NC(=O)[C@H](CS(=O)(=O)O)NC(=O)CN2CCN(CC(=O)O)CCN(CC(=O)O)CCN(CC(=O)O)CC2)C(=O)*)cc1; X7 = COc1ccc(CCCC(=O)NCCCC[C@H](NC(=O)CN2CCN(CC(=O)O)CCN(CC(=O)O)CCN(CC(=O)O)CC2)C(=O)*)cc1; 2Nal = N[C@@H](Cc1ccc2ccccc2c1)C(=O)O; Lys(iPr) = CC(C)NCCCC[C@H](N)C(=O)O; Cya = N[C@@H](CS(=O)(=O)O)C(=O)O

Assay: in vivo
Design: species or system mice
Details: male, NOD.Cg-Rag1tm1Mom Il2rgtm1Wjl/SzJ (NRG), mouse, iv, total radioactivity
Description: The Z138 Mantle cell lymphoma cell line was purchased from the American Type Culture Collection (ATCC©CRL-3001). The cell line was cultured in a 5% CO2 atmosphere at 37° C. in a humidified incubator with IMDM medium supplemented with 10% fetal bovine serum, 100 I.U./mL penicillin, and 100 μg/mL streptomycin.
[^68Ga]GaCl3 was eluted from an iThemba Labs generator with a total of 4 mL of 0.1 M HCl. The eluted [^68Ga]GaCl3 solution was added to 2 mL of concentrated HCl. This radioactive mixture was then added to a DGA resin column and washed with 3 mL of 5 M HCl. The column was then dried with air and the [^68Ga]GaCl3 (0.10-0.50 GBq) was eluted with 0.5 mL of water into a vial containing a solution of the unlabeled precursor (25 μg) in 0.7 mL HEPES buffer (2 M, pH 5.3). The reaction mixture was heated in a microwave oven (Danby; DMW7700WDB) for 1 min at power setting 2. The mixture was purified by semi-prep HPLC and quality control was performed via analytical HPLC with the co-injection of the unlabeled standard with a one-twelfth of the radiotracer. Radiochemical yields (decay-corrected) were >50% and radiochemical purities were >95%.
Animal experiments were performed in accordance with guidelines established by the Canadian Council on Animal Care, under a research protocol approved by the Animal Ethics Committee of the University of British Columbia. For all studies, male NOD.Cg-Rag1tm1Momll2rgtm1Wjl/SzJ (NRG) mice were used and cells injected in a 100 μL solution of 1:1 ratio of PBS/Matrigel. For preclinical imaging and biodistribution studies, 5×10^6 cells of Z138, cells were subcutaneously inoculated on the left or right flank and tumors were grown to a size of 200-300 mm^3. […]
Under isoflurane anesthesia (2-2.5% isoflurane in 2 L/min 02), mice were injected intravenously with [^68Ga]Ga-BL34L6 or [^68Ga]Ga-BL34L7. Mice were euthanized by CO2 inhalation after anesthesia with isoflurane. Tissues were harvested, washed in PBS, patted dry, weighed, and then assayed radioactivity on a gamma counter. Counted radioactivities were converted to percentage injected dose per gram of tissue (% ID/g) using a calibration curve.

[1] = Biodistribution: Small Intestine

Row | SMILES | tissue uptake at 1 h (Biodistribution: Adrenals) | tissue uptake at 1 h (Biodistribution: Blood) | tissue uptake at 1 h (Biodistribution: Bone) | tissue uptake at 1 h (Biodistribution: Brain) | tissue uptake at 1 h (Biodistribution: Heart) | tissue uptake at 1 h (Biodistribution: Kidneys) | tissue uptake at 1 h (Biodistribution: Liver) | tissue uptake at 1 h (Biodistribution: Lungs) | tissue uptake at 1 h (Biodistribution: Muscle) | tissue uptake at 1 h (Biodistribution: Pancreas) | tissue uptake at 1 h [1] | tissue uptake at 1 h (Biodistribution: Spleen) | tissue uptake at 1 h (Biodistribution: Stomach) | tissue uptake at 1 h (Biodistribution: Testes) | tissue uptake at 1 h (Biodistribution: Z138 Tumor) | tissue to tissue ratio at 1 h (Ratio Tumor-to-Blood) | tissue to tissue ratio at 1 h (Ratio Tumor-to-Bone) | tissue to tissue ratio at 1 h (Ratio Tumor-to-Kidney) | tissue to tissue ratio at 1 h (Ratio Tumor-to-Muscle) | tissue to tissue ratio at 1 h (Ratio Tumor-to-Pancreas) | also measured
1 | COc1ccc(CCCC(=O)NCCCC[C@H](NC(=O)CN2CCN(CC(=O)O)CCN(CC(=O)O)CCN(CC(=O)O)CC2)C(=O)N[C@@H](CS(=O)(=O)O)C(=O)NCCCC[C@@H]2NC(=O)CC[C@H](C(=O)N[C@@H](CCCCNC(C)C)C(N)=O)NC(=O)[C@@H](C)NC(=O)[C@H](Cc3ccc4ccccc4c3)NC(=O)[C@@H](CCCNC(=N)N)NC(=O)[C@H](CCCCNC(C)C)NC(=O)[C@H](Cc3ccc(O)cc3)NC2=O)cc1 [[68Ga]Ga-BL34L6, metal not drawn] (K([Cya-X7])Y[Lys(iPr)][dR][2Nal][dA][dE][Lys(iPr)]-NH2; lactam N-7) | 0.29 %ID/g | 0.83 %ID/g | 0.14 %ID/g | 0.01 %ID/g | 0.22 %ID/g | 2.07 %ID/g | 1.6 %ID/g | 0.99 %ID/g | 0.12 %ID/g | 0.12 %ID/g | 0.24 %ID/g | 0.45 %ID/g | 0.05 %ID/g | 0.26 %ID/g | 8.92 %ID/g | 11.6 | 66.5 | 4.36 | 84.6 | 75.3 | 
2 | CC(C)NCCCC[C@H](NC(=O)[C@H]1CCC(=O)N[C@@H](CCCCNC(=O)[C@H](CCCCNC(=O)[C@H](CS(=O)(=O)O)NC(=O)CN2CCN(CC(=O)O)CCN(CC(=O)O)CCN(CC(=O)O)CC2)NC(=O)CNC(=O)CCCc2ccc(Cl)cc2)C(=O)N[C@@H](Cc2ccc(O)cc2)C(=O)N[C@@H](CCCCNC(C)C)C(=O)N[C@H](CCCNC(=N)N)C(=O)N[C@@H](Cc2ccc3ccccc3c2)C(=O)N[C@H](C)C(=O)N1)C(N)=O [[68Ga]Ga-BL34T1, metal not drawn] (K(X4)Y[Lys(iPr)][dR][2Nal][dA][dE][Lys(iPr)]-NH2; lactam N-7) | 2.62 %ID/g | 13.3 %ID/g | 1.04 %ID/g | 0.19 %ID/g | 3.11 %ID/g | 5.01 %ID/g | 2.9 %ID/g | 9.23 %ID/g | 0.99 %ID/g | 1.24 %ID/g | 1.31 %ID/g | 2.3 %ID/g | 0.49 %ID/g | 1.95 %ID/g | 12.2 %ID/g | 0.93 | 12.7 | 2.52 | 12.8 | 10.1 | tissue uptake at 3 h (Biodistribution: Adrenals): 1.93 %ID/g; tissue uptake at 3 h (Biodistribution: Blood): 7.55 %ID/g; tissue uptake at 3 h (Biodistribution: Bone): 1.28 %ID/g; tissue uptake at 3 h (Biodistribution: Brain): 0.16 %ID/g; tissue uptake at 3 h (Biodistribution: Heart): 1.91 %ID/g; tissue uptake at 3 h (Biodistribution: Kidneys): 4.15 %ID/g; tissue uptake at 3 h (Biodistribution: Liver): 3.02 %ID/g; tissue uptake at 3 h (Biodistribution: Lungs): 5.9 %ID/g; tissue uptake at 3 h (Biodistribution: Muscle): 0.73 %ID/g; tissue uptake at 3 h (Biodistribution: Pancreas): 0.92 %ID/g; tissue uptake at 3 h [1]: 0.89 %ID/g; tissue uptake at 3 h (Biodistribution: Spleen): 2.08 %ID/g; tissue uptake at 3 h (Biodistribution: Stomach): 0.44 %ID/g; tissue uptake at 3 h (Biodistribution: Testes): 1.71 %ID/g; tissue uptake at 3 h (Biodistribution: Z138 Tumor): 23.7 %ID/g; tissue to tissue ratio at 3 h (Ratio Tumor-to-Blood): 3.17; tissue to tissue ratio at 3 h (Ratio Tumor-to-Bone): 21.9; tissue to tissue ratio at 3 h (Ratio Tumor-to-Kidney): 5.78; tissue to tissue ratio at 3 h (Ratio Tumor-to-Muscle): 32.6; tissue to tissue ratio at 3 h (Ratio Tumor-to-Pancreas): 26
3 | CC(C)NCCCC[C@H](NC(=O)[C@@H]1CCSc2c3cccc([N+](=O)[O-])c3cn2[C@@H](CCCCNC(=O)[C@H](CS(=O)(=O)O)NC(=O)CN2CCN(CC(=O)O)CCN(CC(=O)O)CCN(CC(=O)O)CC2)C(=O)CC(Cc2ccc(O)cc2)C(=O)N[C@@H](CCCCNC(C)C)C(=O)N[C@H](CCCNC(=N)N)C(=O)N[C@@H](Cc2ccc3ccccc3c2)C(=O)N[C@H](C)C(=O)N1)C(N)=O (stereo partly shown) [[^68Ga]Ga-3NOPA-BL34L2, metal not drawn] | 0.7 %ID/g | 0.77 %ID/g | 0.56 %ID/g | 0.03 %ID/g | 0.45 %ID/g | 5.66 %ID/g | 12.5 %ID/g | 4.14 %ID/g | 0.19 %ID/g | 0.21 %ID/g | 0.58 %ID/g | 2.44 %ID/g | 0.12 %ID/g | 0.33 %ID/g | 7.97 %ID/g | 10.4 | 15.5 | 1.41 | 41.8 | 38.1 | 
4 | COc1ccc(CCCC(=O)NCCCC[C@H](NC(=O)[C@H](CS(=O)(=O)O)NC(=O)CN2CCN(CC(=O)O)CCN(CC(=O)O)CCN(CC(=O)O)CC2)C(=O)NCCCC[C@@H]2NC(=O)CC[C@H](C(=O)N[C@@H](CCCCNC(C)C)C(N)=O)NC(=O)[C@@H](C)NC(=O)[C@H](Cc3ccc4ccccc4c3)NC(=O)[C@@H](CCCNC(=N)N)NC(=O)[C@H](CCCCNC(C)C)NC(=O)[C@H](Cc3ccc(O)cc3)NC2=O)cc1 [[^68Ga]Ga-BL34L7, metal not drawn] (K(X6)Y[Lys(iPr)][dR][2Nal][dA][dE][Lys(iPr)]-NH2; lactam N-7) | 0.52 %ID/g | 1.73 %ID/g | 0.4 %ID/g | 0.04 %ID/g | 0.41 %ID/g | 2.45 %ID/g | 1.24 %ID/g | 1.75 %ID/g | 0.14 %ID/g | 0.23 %ID/g | 0.34 %ID/g | 0.59 %ID/g | 0.09 %ID/g | 0.44 %ID/g | 11.1 %ID/g | 6.5 | 37.2 | 4.51 | 87.1 | 9.07 | 
